The text below walks through data of patent US6153653A, “Choline compositions and uses thereof” (Protarga, Inc., priority 1997, dated 2000).

Several values for one entry are separate records, joined by “and”; a condition that tells them apart may be missing. Equal values may be shown once. Entries after “also recorded” stand apart in the source; their conditions may differ.

For series [1] the following is noted: relative to tPA; cited from earlier work.
The conditions of series [2]: in vivo; cited from earlier work.
The conditions of series [3]: cited from earlier work.
Series [4] in a line: Solubility. The class given is physicochemical.
Series [5] in a line: Stability. Format: physicochemical. Particulars: for Stability on exposure in the air (in words): exposed in the air.
For series [6], the system named is MCA occlusions of rat brain. As to the kind of experiment: Middle cerebral artery occlusion-reperfusion stroke model, infarct by triphenyltetrazolium chloride staining. Format: in vivo. As to conditions: for Infarct volume (% of control non-occluded side of brain), Average: vehicle average 35.5. On the procedure: Two sets of experiments were carried out. In the first set, rats were administered with 50 mg/kg of DHA-choline i.p. at 30 minutes prior to occlusion of the middle cerebral artery of the left side of the brain using a standard highly reproducible animal model of stroke (Karpiak et al., J. Neurosci. Res. 30:512-520, 1991). Occlusion of the middle cerebral artery inhibits blood flow to a major portion of the left cortical and subcortical regions of the brain. After a two hour period, the occluded blood vessel was opened to allow reperfusion of the brain, and anesthesia was terminated. Each animal received additional doses of 50 mg/kg of DHA-choline 24 and 48 hours later.
The animals were sacrificed, perfused with formalin fixative, brains were sliced into seven 2 mm thick coronal sections, and stained with triphenyltetrazolium chloride (Watson et al., J. Neurosci. Methods 53:203-208, 1994). In this test, tissue that contains intact mitochondria stains red, whereas dead tissue with damaged mitochondria picks up no stain and remains white. Each unstained area on the left side of a section was measured and compared to the total area of the control non-occluded right side of the same section of the brain. The area of damaged (white) brain tissue cells was calculated as a percent of the intact right side of a section. […] (n=5 per group.)
In the second set of experiments (n=5), the identical occlusion-reperfusionrat model was used; only the time of administration of the drug was changed. DHA-choline was injected i.p. at a dose of 50 mg/kg at one hour after the beginning of the reperfusion, i.e., at three hours after the initiation of the stroke event. Controls (n=5) received an injection of the vehicle instead of the drug according to the same protocol.

Series [7] relates to locomotor activity of mice. Nature of the series: Locomotor activity (locomotor depression) study, Digiscan chambers. The class given is in vivo, male Swiss-Webster mice (Hsd:ND4). How it is done:
A dose-response study of DHA-choline-induced locomotor depression was conducted using 40 Digiscan locomotor activity testing chambers (40.5×40.5×30.5 cm) housed in sets of two, within sound attenuating chambers. A panel of infrared beams (16 beams) and corresponding photo detectors were located in the horizontal direction along the sides of each activity chamber. A 7.5W incandescent light above each chamber provided dim illumination. Fans provided an 80-dB ambient noise level within the chamber. Separate groups of 8 non-habituated male Swiss-Webster mice (Hsd:ND4, aged 2-3 mo.) were injected via the intraperitoneal route (i.p.) with either vehicle or DHA-choline (0.5, 2.5, 5, 10, 20 or 40 mg/kg), 20 minutes prior to locomotor activity testing. In all studies, the total distance (cm traversed in the horizontal plane) was measured for 2 hours within 10 min periods.
The period 0-30 min was selected for analysis of dose-response data because this is the time period in which DHA-choline produced maximal effects. The mean average distance per 10 min for this 30 min period were fit to a linear function of log, dose of the descending portion of the dose-effect curve (0.5 to 40 mg/kg dose range).

Series [8] has as its system animal models, clinical trials, models of aging. Particulars: cited from earlier work.
[9] abbreviates: 50 mg/kg i.p. at 30 min prior to occlusion.

On to “tPA conjugated to polyethylene glycol: conjugation of tPA to polyethylene glycol (EP-A304,311)”, for which the “clearance rate (in words)” value in series [1] is recorded as “reduce the clearance rate of tPA”.

Take `CC/C=C\C/C=C\C/C=C\C/C=C\C/C=C\C/C=C\CCC(=O)O` [DHA, cis-docosahexaenoic acid]: the “crossing the blood-brain barrier (in words)” value in series [2] is “unusually effective in crossing the blood-brain barrier”. Also, the “Stability in the presence of oxygen (in words)” value in series [3] was “can be unstable in the presence of oxygen”.

Consider `C[N+](C)(C)CCO` [choline], for which the “crossing the blood-brain barrier (in words)” value in series [2] is on record as “cross the blood-brain barrier”.

On to `Nc1ccn([C@@H]2O[C@H](CO)[C@@H](O)[C@H]2O)c(=O)n1` [cytidine], for which, in series [2], the “crossing the blood-brain barrier (in words)” value is on record as “cross the blood-brain barrier”.

`CC/C=C\C/C=C\C/C=C\C/C=C\C/C=C\C/C=C\CCC(=O)OCCN(C)C` [2-dimethylaminoethyl docosahexaenoate]: in series [4], the “Solubility (solvents, in words)” value was “soluble in EtOAc, Et2 O, CH2 Cl2, CHCl3, EtOH insoluble in H2 O”. Further, in series [5], the “Stability on exposure in the air (in words)” value is “turns dark when exposed in the air for several days”.

On to `CC/C=C\C/C=C\C/C=C\C/C=C\C/C=C\C/C=C\CCC(=O)OCC[N+](C)(C)C` [DHA-choline, docosahexaenoyl choline iodide], for which the “decrease in number of dead cells” value in series [6] (setting [9]) is “about 50%”. The “Infarct volume (% of control non-occluded side of brain), individual animals” value in series [6] (50 mg/kg i.p. at 30 min prior to occlusion, Group No. 1 to 4) is 22 % of control non-occluded side of brain and 19 % of control non-occluded side of brain and 16 % of control non-occluded side of brain and 20 % of control non-occluded side of brain; in series [6] (50 mg/kg i.p. at 3 hours after occlusion, Group No. 1 to 5) it was 15 % of control non-occluded side of brain and 17 % of control non-occluded side of brain and 25 % of control non-occluded side of brain and 21 % of control non-occluded side of brain and 20 % of control non-occluded side of brain. In addition, the results for the “Infarct volume (% of control non-occluded side of brain), Average” value in series [6] (setting [9]) and in series [6] (50 mg/kg i.p. at 3 hours after occlusion) were 19.3 % of control non-occluded side of brain and 19.6 % of control non-occluded side of brain, respectively. The “decrease in infarct volume” value in series [6] (50 mg/kg i.p. at three hours after initiation of stroke (one hour after beginning of reperfusion)) is recorded as “approximately 50%”. Besides, the “Solubility (solvents, in words)” value in series [4] was “soluble in CH2 Cl2, CHCl3, EtOAc, EtOH insoluble in hexanes, Et2 O”. For the same molecule, the “one-way analysis of variance on total distance/10 min, F(6,49)” value in series [7] (0-30 min, overall effect) was 10.5. Besides, the “time period in which maximal effects were produced” value in series [7] (i.p., after 20 min pretreatment) lay within 0 to 30 min. In series [5], the “Stability on exposure in the air (in words)” value is on record as “exposed in the air for 5 days showed that the compound had not decomposed; also recorded: if it is exposed in the air for too long will decompose”. In series [5] (purification on neutral alumina, 1H NMR), the “Stability on neutral alumina (in words)” value is reported as “will result in other peaks on ^1 H NMR”.

As for `C[N+](C)(C)CCOP(=O)(O)OP(=O)([O-])OC[C@H]1O[C@@H](n2ccc(N)nc2=O)[C@H](O)[C@@H]1O` [CDP-choline, Cytidine 5'-diphosphocholine], the “release on administration (in words)” value in series [2] was “choline and cytidine are released into the systemic circulation”. The “neuroprotective effect; memory and learning deficits (in words)” value in series [8] was “neuroprotective effect in animal models and in clinical trials; also recorded: improves memory and learning deficits in models of aging”.
